*1 amine or outer side, *2 acyl side, *3 side chain or, on linkers, in order; H or OH if unused. Where a SMILES comes first, the peptide text is derived from it. Bridges are numbered along the chain shown (N, C = ends). [ ]: non-standard residue; d: D form. The star is where a group is joined. X3 = C[C@@H](C(=O)[*:2])N(Cc1ccccc1OC(F)(F)F)[*:1]; X5 = C[C@@H](C(=O)[*:2])N(Cc1cccc2ccccc12)[*:1]; 2Naphthylsulfonyl = O=S(=O)(c1ccc2ccccc2c1)*; X2 = O=C(CCC(=O)*)NS(=O)(=O)c1ccc2ccccc2c1; Benzoyl(4-Ph) = O=C(c1ccc(-c2ccccc2)cc1)*; Quinoline3carbonyl = O=C(c1cnc2ccccc2c1)*; X6 = O=C(c1ccc(-c2ccccc2[N+](=O)[O-])o1)*; Mts = Cc1cc(C)c(S(=O)(=O)*)c(C)c1; Quinaldoyl = O=C(c1ccc2ccccc2n1)*; NH(4-Cl-phenyl) = Clc1ccc(N*)cc1; CO = O=C([*:1])[*:2]; X4 = Cc1cccc(N*)c1
Key:
[1] = Mean retention time in male New Zealand white rabbits after administration via an indwelling catheter in an ear vein at 5 mg/kg; type: ADME, organism-based, Oryctolagus cuniculus; parameters: dose 5 mg/kg; settings: rabbit, in vivo, iv
Coagulation factor VII = molecular target: T1, Coagulation factor VII (Homo sapiens, UniProt P08709); assay: Inhibition of amino terminally biotinylated E-76 peptide binding to immobilized fVIIa
T1 sequence (P08709 whole entry): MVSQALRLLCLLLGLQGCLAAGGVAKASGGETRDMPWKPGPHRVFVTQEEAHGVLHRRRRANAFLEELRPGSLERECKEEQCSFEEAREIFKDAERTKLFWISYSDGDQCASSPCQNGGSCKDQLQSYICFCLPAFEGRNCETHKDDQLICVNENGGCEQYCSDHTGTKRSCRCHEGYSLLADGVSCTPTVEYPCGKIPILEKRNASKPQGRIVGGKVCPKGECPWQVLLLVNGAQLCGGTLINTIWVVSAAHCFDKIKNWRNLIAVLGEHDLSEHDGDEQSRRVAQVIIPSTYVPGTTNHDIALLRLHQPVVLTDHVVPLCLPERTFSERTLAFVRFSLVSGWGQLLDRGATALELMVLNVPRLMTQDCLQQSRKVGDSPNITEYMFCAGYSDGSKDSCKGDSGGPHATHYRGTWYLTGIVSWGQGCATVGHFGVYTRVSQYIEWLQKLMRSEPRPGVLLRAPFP

Albumin = Albumin (Homo sapiens, UniProt P02768); assay: In vitro binding affinity for human serum albumin.; parameters: unit not given here
[2] = Plasma half-life in male New Zealand white rabbits after administration via an indwelling catheter in an ear vein at 5 mg/kg; type: ADME, organism-based, Oryctolagus cuniculus; parameters: dose 5 mg/kg; settings: rabbit, iv
[3] = Clearance in male New Zealand white rabbits after administration via an indwelling catheter in an ear vein at 5 mg/kg; type: ADME, organism-based, Oryctolagus cuniculus; parameters: dose 5 mg/kg; settings: rabbit, in vivo, iv
[4] = Mean retention time in male New Zealand white rabbits after i.v. administration at 2.0 mg/kg; type: ADME, organism-based, Oryctolagus cuniculus; parameters: dose 2 mg/kg, route intravenous; settings: rabbit, in vivo, iv
[5] = Plasma half-life in male New Zealand white rabbits after i.v. administration at 2.0 mg/kg; type: ADME, organism-based, Oryctolagus cuniculus; parameters: dose 2 mg/kg, route intravenous; settings: rabbit, iv
[6] = Clearance in male New Zealand white rabbits after i.v. administration at 2.0 mg/kg; type: ADME, organism-based, Oryctolagus cuniculus; parameters: dose 2 mg/kg, route intravenous; settings: rabbit, in vivo, iv

Albumin, sequence (P02768 whole entry): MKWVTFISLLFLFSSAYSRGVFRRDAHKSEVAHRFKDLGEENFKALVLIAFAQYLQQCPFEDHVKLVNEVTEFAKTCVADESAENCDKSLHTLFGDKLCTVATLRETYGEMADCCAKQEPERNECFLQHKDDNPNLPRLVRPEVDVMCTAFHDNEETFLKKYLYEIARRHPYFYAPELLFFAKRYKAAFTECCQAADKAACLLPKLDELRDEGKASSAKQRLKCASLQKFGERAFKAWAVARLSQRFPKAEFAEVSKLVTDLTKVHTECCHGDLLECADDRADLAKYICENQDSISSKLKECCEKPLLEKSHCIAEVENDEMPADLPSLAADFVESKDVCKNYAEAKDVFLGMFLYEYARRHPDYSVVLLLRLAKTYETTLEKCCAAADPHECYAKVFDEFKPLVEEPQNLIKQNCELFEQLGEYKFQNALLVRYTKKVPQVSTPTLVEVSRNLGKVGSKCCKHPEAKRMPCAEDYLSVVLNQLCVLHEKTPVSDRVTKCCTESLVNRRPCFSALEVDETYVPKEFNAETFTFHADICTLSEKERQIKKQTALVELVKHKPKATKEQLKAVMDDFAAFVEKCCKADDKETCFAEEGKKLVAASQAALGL

Compound	IC50 (Coagulation factor VII) [nM]	Binding affinity (Albumin)	also measured
CC[C@H](C)[C@@H]1NC(=O)[C@H](CCCN=C(N)N)NC(=O)[C@@H]2CCCN2C(=O)[C@H](CC(N)=O)NC(=O)[C@H](CC(=O)O)NC(=O)[C@@H](NC(=O)[C@H](CC(C)C)NC(=O)[C@H](C)NC(=O)c2ccc(-c3ccccc3)cc2)CSSC[C@@H](C(=O)N[C@@H](CCC(N)=O)C(=O)N[C@@H](Cc2ccccc2)C(=O)N[C@H](C(=O)N[C@@H](CCC(=O)O)C(=O)NCC(N)=O)C(C)C)NC(=O)[C@H](Cc2ccc(O)cc2)NC(=O)[C@H](Cc2c[nH]c3ccccc23)NC(=O)[C@H](CCCN=C(N)N)NC(=O)[C@H](CC(=O)O)NC1=O ({Benzoyl(4-Ph)}-ALCDNPRIDRWYCQFVEG-NH2; disulfide 3-13)	4	0.62	MRT [1]: 17 min; half-life [2]: 15 min; clearance [3]: 4.3 mL/min/kg
CC[C@H](C)[C@@H]1NC(=O)[C@H](CCCNC(=N)N)NC(=O)[C@@H]2CCCN2C(=O)[C@H](CC(N)=O)NC(=O)[C@H](CC(=O)O)NC(=O)[C@@H](NC(=O)[C@H](CC(C)C)NC(=O)[C@H](C)NC(=O)Nc2cccc(C)c2)CSSC[C@@H](C(=O)N[C@@H](CCC(N)=O)C(=O)N[C@@H](Cc2ccccc2)C(=O)N[C@H](C(=O)N[C@@H](CCC(=O)O)C(=O)NCC(N)=O)C(C)C)NC(=O)[C@H](Cc2ccc(O)cc2)NC(=O)[C@H](Cc2c[nH]c3ccccc23)NC(=O)[C@H](CCCNC(=N)N)NC(=O)[C@H](CC(=O)O)NC1=O ({X4-CO}-ALCDNPRIDRWYCQFVEG-NH2; disulfide 3-13)	1.8	0.59	
CC[C@H](C)[C@@H]1NC(=O)[C@H](CCCN=C(N)N)NC(=O)[C@@H]2CCCN2C(=O)[C@H](CC(N)=O)NC(=O)[C@H](CC(=O)O)NC(=O)[C@@H](NC(=O)[C@H](CC(C)C)NC(=O)[C@H](C)NC(=O)CCC(=O)NS(=O)(=O)c2ccc3ccccc3c2)CSSC[C@@H](C(=O)N[C@@H](CCC(N)=O)C(=O)N[C@@H](Cc2ccccc2)C(=O)N[C@H](C(=O)N[C@@H](CCC(=O)O)C(=O)NCC(N)=O)C(C)C)NC(=O)[C@H](Cc2ccc(O)cc2)NC(=O)[C@H](Cc2c[nH]c3ccccc23)NC(=O)[C@H](CCCN=C(N)N)NC(=O)[C@H](CC(=O)O)NC1=O (X2-ALCDNPRIDRWYCQFVEG-NH2; disulfide 3-13)	1	0.97	MRT [4]: 35 min; half-life [5]: 30 min; clearance [6]: 1.6 mL/min/kg
CC[C@H](C)[C@@H]1NC(=O)[C@H](CCCNC(=N)N)NC(=O)[C@@H]2CCCN2C(=O)[C@H](CC(N)=O)NC(=O)[C@H](CC(=O)O)NC(=O)[C@@H](NC(=O)[C@H](CC(C)C)NC(=O)[C@H](C)NS(=O)(=O)c2ccc3ccccc3c2)CSSC[C@@H](C(=O)N[C@@H](CCC(N)=O)C(=O)N[C@@H](Cc2ccccc2)C(=O)N[C@H](C(=O)N[C@@H](CCC(=O)O)C(=O)NCC(N)=O)C(C)C)NC(=O)[C@H](Cc2ccc(O)cc2)NC(=O)[C@H](Cc2c[nH]c3ccccc23)NC(=O)[C@H](CCCNC(=N)N)NC(=O)[C@H](CC(=O)O)NC1=O (2Naphthylsulfonyl-ALCDNPRIDRWYCQFVEG-NH2; disulfide 3-13)	20.4	0.92	
CC[C@H](C)[C@@H]1NC(=O)[C@H](CCCNC(=N)N)NC(=O)[C@@H]2CCCN2C(=O)[C@H](CC(N)=O)NC(=O)[C@H](CC(=O)O)NC(=O)[C@@H](NC(=O)[C@H](CC(C)C)NC(=O)[C@H](C)NCc2cccc3ccccc23)CSSC[C@@H](C(=O)N[C@@H](CCC(N)=O)C(=O)N[C@@H](Cc2ccccc2)C(=O)N[C@H](C(=O)N[C@@H](CCC(=O)O)C(=O)NCC(N)=O)C(C)C)NC(=O)[C@H](Cc2ccc(O)cc2)NC(=O)[C@H](Cc2c[nH]c3ccccc23)NC(=O)[C@H](CCCNC(=N)N)NC(=O)[C@H](CC(=O)O)NC1=O (H-[X5]LCDNPRIDRWYCQFVEG-NH2; disulfide 3-13)	1.6	0.69	
CC[C@H](C)[C@@H]1NC(=O)[C@H](CCCN=C(N)N)NC(=O)[C@@H]2CCCN2C(=O)[C@H](CC(N)=O)NC(=O)[C@H](CC(=O)O)NC(=O)[C@@H](NC(=O)[C@H](CC(C)C)NC(=O)[C@H](C)NC(C)=O)CSSC[C@@H](C(=O)N[C@@H](CCC(N)=O)C(=O)N[C@@H](Cc2ccccc2)C(=O)N[C@H](C(=O)N[C@@H](CCC(=O)O)C(=O)NCC(N)=O)C(C)C)NC(=O)[C@H](Cc2ccc(O)cc2)NC(=O)[C@H](Cc2c[nH]c3ccccc23)NC(=O)[C@H](CCCN=C(N)N)NC(=O)[C@H](CC(=O)O)NC1=O (Ac-ALCDNPRIDRWYCQFVEG-NH2; disulfide 3-13)	1.1	0.21	MRT [1]: 3.2 min; half-life [2]: 5 min; clearance [3]: 33 mL/min/kg
CC[C@H](C)[C@@H]1NC(=O)[C@H](CCCN=C(N)N)NC(=O)[C@@H]2CCCN2C(=O)[C@H](CC(N)=O)NC(=O)[C@H](CC(=O)O)NC(=O)[C@@H](NC(=O)[C@H](CC(C)C)NC(=O)[C@H](C)NC(=O)c2ccc3ccccc3n2)CSSC[C@@H](C(=O)N[C@@H](CCC(N)=O)C(=O)N[C@@H](Cc2ccccc2)C(=O)N[C@H](C(=O)N[C@@H](CCC(=O)O)C(=O)NCC(N)=O)C(C)C)NC(=O)[C@H](Cc2ccc(O)cc2)NC(=O)[C@H](Cc2c[nH]c3ccccc23)NC(=O)[C@H](CCCN=C(N)N)NC(=O)[C@H](CC(=O)O)NC1=O (Quinaldoyl-ALCDNPRIDRWYCQFVEG-NH2; disulfide 3-13)	2.9	0.64	
CC[C@H](C)[C@@H]1NC(=O)[C@H](CCCNC(=N)N)NC(=O)[C@@H]2CCCN2C(=O)[C@H](CC(N)=O)NC(=O)[C@H](CC(=O)O)NC(=O)[C@@H](NC(=O)[C@H](CC(C)C)NC(=O)[C@H](C)NS(=O)(=O)c2c(C)cc(C)cc2C)CSSC[C@@H](C(=O)N[C@@H](CCC(N)=O)C(=O)N[C@@H](Cc2ccccc2)C(=O)N[C@H](C(=O)N[C@@H](CCC(=O)O)C(=O)NCC(N)=O)C(C)C)NC(=O)[C@H](Cc2ccc(O)cc2)NC(=O)[C@H](Cc2c[nH]c3ccccc23)NC(=O)[C@H](CCCNC(=N)N)NC(=O)[C@H](CC(=O)O)NC1=O (Mts-ALCDNPRIDRWYCQFVEG-NH2; disulfide 3-13)	10	0.82	
CC[C@H](C)[C@@H]1NC(=O)[C@H](CCCN=C(N)N)NC(=O)[C@@H]2CCCN2C(=O)[C@H](CC(N)=O)NC(=O)[C@H](CC(=O)O)NC(=O)[C@@H](NC(=O)[C@H](CC(C)C)NC(=O)[C@H](C)NC(=O)Nc2ccc(Cl)cc2)CSSC[C@@H](C(=O)N[C@@H](CCC(N)=O)C(=O)N[C@@H](Cc2ccccc2)C(=O)N[C@H](C(=O)N[C@@H](CCC(=O)O)C(=O)NCC(N)=O)C(C)C)NC(=O)[C@H](Cc2ccc(O)cc2)NC(=O)[C@H](Cc2c[nH]c3ccccc23)NC(=O)[C@H](CCCN=C(N)N)NC(=O)[C@H](CC(=O)O)NC1=O ({NH(4-Cl-phenyl)-CO}-ALCDNPRIDRWYCQFVEG-NH2; disulfide 3-13)	13.4	0.65	
CC[C@H](C)[C@@H]1NC(=O)[C@H](CCCN=C(N)N)NC(=O)[C@@H]2CCCN2C(=O)[C@H](CC(N)=O)NC(=O)[C@H](CC(=O)O)NC(=O)[C@@H](NC(=O)[C@H](CC(C)C)NC(=O)[C@H](C)NC(=O)c2cnc3ccccc3c2)CSSC[C@@H](C(=O)N[C@@H](CCC(N)=O)C(=O)N[C@@H](Cc2ccccc2)C(=O)N[C@H](C(=O)N[C@@H](CCC(=O)O)C(=O)NCC(N)=O)C(C)C)NC(=O)[C@H](Cc2ccc(O)cc2)NC(=O)[C@H](Cc2c[nH]c3ccccc23)NC(=O)[C@H](CCCN=C(N)N)NC(=O)[C@H](CC(=O)O)NC1=O (Quinoline3carbonyl-ALCDNPRIDRWYCQFVEG-NH2; disulfide 3-13)	11.8	0.64	
CC[C@H](C)[C@@H]1NC(=O)[C@H](CCCNC(=N)N)NC(=O)[C@@H]2CCCN2C(=O)[C@H](CC(N)=O)NC(=O)[C@H](CC(=O)O)NC(=O)[C@@H](NC(=O)[C@H](CC(C)C)NC(=O)[C@H](C)NC(=O)c2ccc(-c3ccccc3[N+](=O)[O-])o2)CSSC[C@@H](C(=O)N[C@@H](CCC(N)=O)C(=O)N[C@@H](Cc2ccccc2)C(=O)N[C@H](C(=O)N[C@@H](CCC(=O)O)C(=O)NCC(N)=O)C(C)C)NC(=O)[C@H](Cc2ccc(O)cc2)NC(=O)[C@H](Cc2c[nH]c3ccccc23)NC(=O)[C@H](CCCNC(=N)N)NC(=O)[C@H](CC(=O)O)NC1=O (X6-ALCDNPRIDRWYCQFVEG-NH2; disulfide 3-13)	1	0.79	
CC[C@H](C)[C@@H]1NC(=O)[C@H](CCCN=C(N)N)NC(=O)[C@@H]2CCCN2C(=O)[C@H](CC(N)=O)NC(=O)[C@H](CC(=O)O)NC(=O)[C@@H](NC(=O)[C@H](CC(C)C)NC(=O)[C@H](C)NCc2ccccc2OC(F)(F)F)CSSC[C@@H](C(=O)N[C@@H](CCC(N)=O)C(=O)N[C@@H](Cc2ccccc2)C(=O)N[C@H](C(=O)N[C@@H](CCC(=O)O)C(=O)NCC(N)=O)C(C)C)NC(=O)[C@H](Cc2ccc(O)cc2)NC(=O)[C@H](Cc2c[nH]c3ccccc23)NC(=O)[C@H](CCCN=C(N)N)NC(=O)[C@H](CC(=O)O)NC1=O (H-[X3]LCDNPRIDRWYCQFVEG-NH2; disulfide 3-13)	13.4	0.93	
